Test results as given in PMC12102759 (Protein Science : A Publication of the Protein Society, 2025).

Assays:
NSP3 SUD-M = NSP3 SUD-M (Severe acute respiratory syndrome coronavirus 2, UniProt P0DTC1); assay: biochemical; type: binding, SARS‐CoV‐2
NSP3 UBl1 = NSP3 UBl1 (Severe acute respiratory syndrome coronavirus 2, UniProt P0DTC1); type: binding, SARS‐CoV‐2
NSP9 = NSP9 (Severe acute respiratory syndrome coronavirus 2, UniProt P0DTC1); type: binding, SARS‐CoV‐2

Ac-QFTEEALHFVLYGVTPY-NH2 [PRDM14 D201A]
effect of mutation on affinity, in words (NSP3 SUD-M): reduced affinity

Ac-QFTEENLHFVLYGVTPY-NH2 [PRDM14 D201N]
effect of mutation on affinity, in words (NSP3 SUD-M): reduced affinity

DEGALLDQLYLALRNF
PSSM value, column E (NSP3 UBl1): 1 | PSSM value, column G (NSP3 UBl1): 0.00255 | PSSM value, column N (NSP3 UBl1): 0.0003155 | PSSM value, column Q (NSP3 UBl1): 0.001034 | PSSM value, column R (NSP3 UBl1): 0.0009557 | PSSM value, column Y (NSP3 UBl1): 0.8625

EPGHSPADYLRFQDLV
DMS PSSM value, P (position 2) (NSP16): 0 | DMS PSSM value, column A (position 7) (NSP16): 0 | DMS PSSM value, column D (position 8) (NSP16): 1 | DMS PSSM value, column D (position 14) (NSP16): 1 | DMS PSSM value, column F (position 12) (NSP16): 1 | DMS PSSM value, column G (position 3) (NSP16): 0 | DMS PSSM value, column H (position 4) (NSP16): 1 | DMS PSSM value, column L (position 10) (NSP16): 0 | DMS PSSM value, column L (position 15) (NSP16): 0 | DMS PSSM value, column P (position 6) (NSP16): 0 | DMS PSSM value, column Q (position 13) (NSP16): 1 | DMS PSSM value, column R (position 11) (NSP16): 1 | DMS PSSM value, column S (position 5) (NSP16): 0 | DMS PSSM value, column V (position 16) (NSP16): 1 | DMS PSSM value, column Y (position 9) (NSP16): 0

GHSPADYLRFQDLVLR
DMS PSSM value, P (position 4) (NSP16): 0.03004 | DMS PSSM value, column A (position 5) (NSP16): 0.5801 | DMS PSSM value, column D (position 6) (NSP16): 0.9437 | DMS PSSM value, column D (position 12) (NSP16): 0.8934 | DMS PSSM value, column F (position 10) (NSP16): 1 | DMS PSSM value, column G (position 1) (NSP16): 0.4974 | DMS PSSM value, column H (position 2) (NSP16): 0.3305 | DMS PSSM value, column L (position 8) (NSP16): 0.965 | DMS PSSM value, column L (position 13) (NSP16): 0.8766 | DMS PSSM value, column L (position 15) (NSP16): 0.9948 | DMS PSSM value, column Q (position 11) (NSP16): 1 | DMS PSSM value, column R (position 9) (NSP16): 0.07816 | DMS PSSM value, column S (position 3) (NSP16): 0.3438 | DMS PSSM value, column V (position 14) (NSP16): 0.9023 | DMS PSSM value, column Y (position 7) (NSP16): 1

NSSGLSIGTVFQSSSP
PSSM value, position F11 of NSSGLSIGTVFQSSSP (NSP9): 0.004607 | PSSM value, position I7 of NSSGLSIGTVFQSSSP (NSP9): 0.3584 | PSSM value, position L5 of NSSGLSIGTVFQSSSP (NSP9): 0.5284 | PSSM value, position P16 of NSSGLSIGTVFQSSSP (NSP9): 0.0472 | PSSM value, position Q12 of NSSGLSIGTVFQSSSP (NSP9): 0.008402 | PSSM value, position S2 of NSSGLSIGTVFQSSSP (NSP9): 0.1505 | PSSM value, position S3 of NSSGLSIGTVFQSSSP (NSP9): 0.01233 | PSSM value, position S6 of NSSGLSIGTVFQSSSP (NSP9): 0.08225 | PSSM value, position S13 of NSSGLSIGTVFQSSSP (NSP9): 0.05519 | PSSM value, position S14 of NSSGLSIGTVFQSSSP (NSP9): 0.02572 | PSSM value, position S15 of NSSGLSIGTVFQSSSP (NSP9): 0.009443 | PSSM value, position T9 of NSSGLSIGTVFQSSSP (NSP9): 0.0231 | PSSM value, position V10 of NSSGLSIGTVFQSSSP (NSP9): 0.01201

PSDEGALLDQLYLALR
PSSM value, column E (NSP3 UBl1): 0.9239 | PSSM value, column G (NSP3 UBl1): 0.163 | PSSM value, column Q (NSP3 UBl1): 0.8454 | PSSM value, column R (NSP3 UBl1): 0.000271 | PSSM value, column S (NSP3 UBl1): 0.00806 | PSSM value, column Y (NSP3 UBl1): 0.04994

SGLSIGTVFQSSSPGG
PSSM value, position F9 of SGLSIGTVFQSSSPGG (NSP9): 0 | PSSM value, position I5 of SGLSIGTVFQSSSPGG (NSP9): 1 | PSSM value, position L3 of SGLSIGTVFQSSSPGG (NSP9): 0 | PSSM value, position P14 of SGLSIGTVFQSSSPGG (NSP9): 0 | PSSM value, position Q10 of SGLSIGTVFQSSSPGG (NSP9): 0 | PSSM value, position S1 of SGLSIGTVFQSSSPGG (NSP9): 0 | PSSM value, position S4 of SGLSIGTVFQSSSPGG (NSP9): 0 | PSSM value, position S11 of SGLSIGTVFQSSSPGG (NSP9): 0 | PSSM value, position S12 of SGLSIGTVFQSSSPGG (NSP9): 0 | PSSM value, position S13 of SGLSIGTVFQSSSPGG (NSP9): 0 | PSSM value, position T7 of SGLSIGTVFQSSSPGG (NSP9): 0 | PSSM value, position V8 of SGLSIGTVFQSSSPGG (NSP9): 0
